Data as given in PubChem BioAssay (NCI).
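Five concentrations, 48 hours, 96-well plates. GI50 is the concentration that inhibits growth by half. The concentration for full growth arrest is given as TGI.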

Assays:
Assay in all cases: DTP human tumour cell line panel, 48 h
[1] = test system: HCC-2998 colon
[2] = test system: HCT-15 colon
[3] = test system: A498 renal
[4] = test system: HOP-62 NSCLC
[5] = test system: HS 578T breast
[6] = test system: SK-MEL-5 melanoma
[7] = test system: NCI-H226 lung
[8] = test system: T-47D breast
[9] = test system: EKVX NSCLC
[10] = test system: SK-MEL-2 melanoma
[11] = test system: PC-3 prostate
[12] = test system: BT-549 breast
[13] = test system: SF-295 CNS
[14] = test system: UACC-62 melanoma
[15] = test system: MDA-MB-468 breast
[16] = test system: MDA-MB-435
[17] = test system: A549 NSCLC
[18] = test system: SR leukemia
[19] = test system: IGROV1 ovarian
[20] = test system: HT29 colon
[21] = test system: HCT-116 colon
[22] = test system: RPMI-8226 leukemia
[23] = test system: 786-0 renal
[24] = test system: HOP-92 NSCLC
[25] = test system: OVCAR-4 ovarian
[26] = test system: LOX IMVI melanoma
[27] = test system: MDA-MB-231 breast
[28] = test system: SNB-19 CNS
[29] = test system: NCI-H460 lung
[30] = test system: OVCAR-5 ovarian
[31] = test system: NCI/ADR-RES ovarian
[32] = test system: RXF 393 renal
[33] = test system: K-562 leukemia
[34] = test system: MALME-3M melanoma
[35] = test system: SF-539 CNS
[36] = test system: SW-620 colon
[37] = test system: SN12C renal
[38] = test system: HL-60(TB) leukemia
[39] = test system: NCI-H23 lung
[40] = test system: ACHN renal
[41] = test system: SK-OV-3 ovarian
[42] = test system: COLO 205 colon
[43] = test system: SF-268 CNS
[44] = test system: M14 melanoma
[45] = test system: U251 CNS
[46] = test system: UO-31 renal
[47] = test system: DU-145 prostate
[48] = test system: CAKI-1 renal
[49] = test system: OVCAR-3 ovarian
[50] = test system: CCRF-CEM leukemia
[51] = test system: SK-MEL-28 melanoma
[52] = test system: MOLT-4 leukemia
[53] = test system: TK-10 renal
[54] = test system: OVCAR-8 ovarian
[55] = test system: KM12 colon
[56] = test system: SNB-75 CNS
[57] = test system: NCI-H522 lung
[58] = test system: MCF7 breast
[59] = test system: UACC-257 melanoma

SMILES: COc1cccc(/C=N/NC(=O)c2ccc3nc(-c4ccc(Cl)cc4)[nH]c3c2)c1O
- GI50 [1]: 0.8 µM
- TGI [1]: 2.2 µM
- GI50 [2]: 1.31 µM
- TGI [2]: > 40 µM
- GI50 [3]: 5 µM
- TGI [3]: 11.9 µM
- GI50 [4]: 0.57 µM
- TGI [4]: 1.85 µM
- GI50 [5]: 0.705 µM
- TGI [5]: 2.9 µM
- GI50 [6]: 0.772 µM
- TGI [6]: 2.09 µM
- GI50 [7]: 1.65 µM
- TGI [7]: 4 µM
- GI50 [8]: 0.389 µM
- TGI [8]: 2.01 µM
- GI50 [9]: 2.12 µM
- TGI [9]: 9.8 µM
- GI50 [10]: 0.378 µM
- TGI [10]: 1.49 µM
- GI50 [11]: 1.35 µM
- TGI [11]: 4.67 µM
- GI50 [12]: 0.673 µM
- TGI [12]: 1.79 µM
- GI50 [13]: 2.2 µM
- TGI [13]: 5.46 µM
- GI50 [14]: 0.607 µM
- TGI [14]: 1.77 µM
- GI50 [15]: 0.611 µM
- TGI [15]: 1.45 µM
- GI50 [16]: 1.01 µM
- TGI [16]: 2.83 µM
- GI50 [17]: 3.68 µM
- TGI [17]: 14.8 µM
- GI50 [18]: 0.369 µM
- TGI [18]: 3.75 µM
- GI50 [19]: 1.25 µM
- TGI [19]: 3.14 µM
- GI50 [20]: 4.17 µM
- TGI [20]: 19.3 µM
- GI50 [21]: 1.19 µM
- TGI [21]: 2.57 µM
- GI50 [22]: 2.22 µM
- TGI [22]: 5.54 µM
- GI50 [23]: 1.06 µM
- TGI [23]: 2.52 µM
- GI50 [24]: 0.67 µM
- TGI [24]: 2.4 µM
- GI50 [25]: 0.728 µM
- TGI [25]: 3.18 µM
- GI50 [26]: 1.18 µM
- TGI [26]: 2.53 µM
- GI50 [27]: 0.988 µM
- TGI [27]: 3.15 µM
- GI50 [28]: 1.31 µM
- TGI [28]: 2.59 µM
- GI50 [29]: 1.34 µM
- TGI [29]: 2.77 µM
- GI50 [30]: 1.85 µM
- TGI [30]: 5.08 µM
- GI50 [31]: > 100 µM
- TGI [31]: > 100 µM
- GI50 [32]: 0.972 µM
- TGI [32]: 2.46 µM
- GI50 [33]: 0.332 µM
- GI50 [34]: 1.36 µM
- TGI [34]: 2.89 µM
- GI50 [35]: 0.428 µM
- TGI [35]: 1.02 µM
- GI50 [36]: 1.32 µM
- TGI [36]: 3.52 µM
- GI50 [37]: 1.08 µM
- TGI [37]: 2.59 µM
- GI50 [38]: 1.07 µM
- TGI [38]: 4.63 µM
- GI50 [39]: 0.525 µM
- TGI [39]: 1.54 µM
- GI50 [40]: 1.32 µM
- TGI [40]: 6.25 µM
- GI50 [41]: 1.03 µM
- TGI [41]: 2.79 µM
- GI50 [42]: 1.58 µM
- TGI [42]: 3.56 µM
- GI50 [43]: 0.484 µM
- TGI [43]: 1.52 µM
- GI50 [44]: 1.01 µM
- TGI [44]: 4.28 µM
- GI50 [45]: 1.5 µM
- TGI [45]: 3.08 µM
- GI50 [46]: 1.01 µM
- TGI [46]: > 48 µM
- GI50 [47]: 1.34 µM
- TGI [47]: 3.28 µM
- GI50 [48]: 1.01 µM
- TGI [48]: 3.51 µM
- GI50 [49]: 0.353 µM
- TGI [49]: 1.05 µM
- GI50 [50]: 0.425 µM
- TGI [50]: 3.77 µM
- GI50 [51]: 1 µM
- TGI [51]: 2.93 µM
- GI50 [52]: 0.421 µM
- TGI [52]: 2.46 µM
- GI50 [53]: 4.07 µM
- TGI [53]: 15.9 µM
- GI50 [54]: 1.58 µM
- TGI [54]: 4.39 µM
- GI50 [55]: 0.715 µM
- TGI [55]: 1.88 µM
- GI50 [56]: 0.231 µM
- TGI [56]: 1.38 µM
- GI50 [57]: 1.17 µM
- TGI [57]: 2.81 µM
- GI50 [58]: 0.66 µM
- TGI [58]: 3.38 µM
- GI50 [59]: 1.19 µM
- TGI [59]: 3.53 µM

SMILES: Cc1[nH]nc2ccc3nc(-c4cn[nH]c4C(F)(F)F)c4c(c3c12)CCCC4
- GI50 [1]: 3.52 µM
- TGI [1]: 12.6 µM
- GI50 [2]: 2.75 µM
- TGI [2]: 9.34 µM
- GI50 [3]: 2.32 µM
- TGI [3]: 6.77 µM
- GI50 [4]: 3.53 µM
- TGI [4]: 12.5 µM
- GI50 [5]: 2.14 µM
- TGI [5]: 5.19 µM
- GI50 [6]: 2.94 µM
- TGI [6]: 9.26 µM
- GI50 [7]: 5.15 µM
- TGI [7]: 43.7 µM
- GI50 [8]: 2.4 µM
- TGI [8]: 12.1 µM
- GI50 [9]: 2.84 µM
- TGI [9]: 9.62 µM
- GI50 [11]: 3.94 µM
- TGI [11]: 17.1 µM
- GI50 [12]: 2.1 µM
- TGI [12]: 5.19 µM
- GI50 [13]: 3.34 µM
- TGI [13]: 14 µM
- GI50 [14]: 2.09 µM
- TGI [14]: 6.64 µM
- GI50 [15]: 2.46 µM
- TGI [15]: 8.78 µM
- GI50 [16]: 3.01 µM
- TGI [16]: 11.2 µM
- GI50 [17]: 3.54 µM
- TGI [17]: 13 µM
- GI50 [18]: 1.56 µM
- TGI [18]: 4.13 µM
- GI50 [19]: 2.61 µM
- TGI [19]: 7.43 µM
- GI50 [20]: 3.9 µM
- TGI [20]: 12.7 µM
- GI50 [21]: 2.58 µM
- TGI [21]: 10.3 µM
- GI50 [22]: 2.49 µM
- TGI [22]: 30.3 µM
- GI50 [23]: 2.95 µM
- TGI [23]: 12.5 µM
- GI50 [24]: 2.86 µM
- TGI [24]: 8.51 µM
- GI50 [25]: 8.96 µM
- TGI [25]: 21.2 µM
- GI50 [26]: 3.55 µM
- TGI [26]: 13.1 µM
- GI50 [28]: 5.14 µM
- TGI [28]: 17.9 µM
- GI50 [29]: 3 µM
- TGI [29]: 13.1 µM
- GI50 [30]: 3.15 µM
- TGI [30]: 13.7 µM
- GI50 [31]: 11.7 µM
- TGI [31]: 30.1 µM
- GI50 [32]: 1.37 µM
- TGI [32]: 4.39 µM
- GI50 [33]: 3.5 µM
- TGI [33]: 19.9 µM
- GI50 [34]: 4.04 µM
- TGI [34]: 13.6 µM
- GI50 [35]: 2.03 µM
- TGI [35]: 6.54 µM
- GI50 [36]: 2.48 µM
- TGI [36]: 11.3 µM
- GI50 [37]: 3.31 µM
- TGI [37]: 13.3 µM
- GI50 [38]: 2.72 µM
- TGI [38]: 6.92 µM
- GI50 [39]: 2.95 µM
- TGI [39]: 11 µM
- GI50 [40]: 2.26 µM
- TGI [40]: 11.6 µM
- GI50 [41]: 1.78 µM
- TGI [41]: 5.31 µM
- GI50 [42]: 3.24 µM
- TGI [42]: 10.9 µM
- GI50 [43]: 2.99 µM
- TGI [43]: 13.5 µM
- GI50 [44]: 2.77 µM
- TGI [44]: 10.9 µM
- GI50 [45]: 4.41 µM
- TGI [45]: 17.6 µM
- GI50 [47]: 3.99 µM
- TGI [47]: 18.5 µM
- GI50 [48]: 3.3 µM
- TGI [48]: 11.8 µM
- GI50 [49]: 4.15 µM
- TGI [49]: 14.6 µM
- GI50 [50]: 3.49 µM
- TGI [50]: 19.1 µM
- GI50 [51]: 3.79 µM
- TGI [51]: 14.2 µM
- GI50 [52]: 2.16 µM
- TGI [52]: 5.89 µM
- GI50 [53]: 2.29 µM
- TGI [53]: 11.7 µM
- GI50 [54]: 4.44 µM
- TGI [54]: 18.7 µM
- GI50 [55]: 2.82 µM
- TGI [55]: 13.3 µM
- GI50 [57]: 1.44 µM
- TGI [57]: 5.06 µM
- GI50 [58]: 4.03 µM
- TGI [58]: 16.8 µM
- GI50 [59]: 8.47 µM
- TGI [59]: 22 µM
